Measurements reported in patent US10377770B2 (Novartis AG, priority 2015, dated 2019).

What follows are compounds tested against C-Raf FL (full length CRAF with Y340E and Y341E activating mutations, co-expressed with h14-3-3 zeta) (Homo sapiens (Human), UniProt P04049, Y340E/Y341E) (assay: In vitro Raf activity determination, AlphaScreen p-MEK readout, c-Raf (C-Raf FL)). Conditions: c-Raf approximately 4 nM, ATP 1 μM, pre-incubation 60 minutes, reaction 1 hour.
C-Raf FL (full length CRAF with Y340E and Y341E activating mutations, co-expressed with h14-3-3 zeta), sequence (P04049 whole entry Y340E/Y341E): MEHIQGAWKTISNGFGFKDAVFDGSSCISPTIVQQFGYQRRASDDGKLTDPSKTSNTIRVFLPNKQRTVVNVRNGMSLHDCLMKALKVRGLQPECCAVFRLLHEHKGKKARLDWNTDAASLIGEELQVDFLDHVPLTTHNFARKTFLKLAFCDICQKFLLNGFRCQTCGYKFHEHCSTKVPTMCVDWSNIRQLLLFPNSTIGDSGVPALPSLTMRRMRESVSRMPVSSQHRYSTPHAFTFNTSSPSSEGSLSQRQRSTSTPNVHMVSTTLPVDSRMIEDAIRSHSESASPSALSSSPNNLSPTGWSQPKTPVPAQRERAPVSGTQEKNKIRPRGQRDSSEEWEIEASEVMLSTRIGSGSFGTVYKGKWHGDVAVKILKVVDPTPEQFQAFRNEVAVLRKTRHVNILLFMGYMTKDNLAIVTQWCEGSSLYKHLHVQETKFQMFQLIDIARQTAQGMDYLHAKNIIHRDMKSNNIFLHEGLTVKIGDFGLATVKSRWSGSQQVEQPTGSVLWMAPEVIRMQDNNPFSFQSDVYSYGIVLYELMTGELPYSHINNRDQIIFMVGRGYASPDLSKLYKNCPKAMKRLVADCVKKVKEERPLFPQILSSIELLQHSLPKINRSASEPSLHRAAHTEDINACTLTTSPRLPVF
C-Raf FL (full length CRAF with Y340E and Y341E activating mutations, co-expressed with h14-3-3 zeta), sequence (P63104 whole entry partner): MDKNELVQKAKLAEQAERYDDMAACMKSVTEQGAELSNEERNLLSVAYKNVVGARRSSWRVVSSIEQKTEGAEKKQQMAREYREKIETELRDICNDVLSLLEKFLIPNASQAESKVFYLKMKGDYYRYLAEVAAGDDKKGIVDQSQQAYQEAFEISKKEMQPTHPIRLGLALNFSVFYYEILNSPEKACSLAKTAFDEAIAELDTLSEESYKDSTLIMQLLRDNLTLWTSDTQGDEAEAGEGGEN
Assay type: biochemical
Outline: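 Full-length C-Raf (~4 nM) pre-incubated 60 min at room temperature with compound and kinase-dead biotinylated MEK1 (~10 nM) in Tris pH 7.5, 15 mM MgCl2, BSA, DTT. Reaction started with 1 μM ATP and run 1 h at room temperature. Phospho-MEK detected by AlphaScreen with anti-p-MEK antibody.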
`CCN1C(=O)OC2COCCC2c2cc(-c3cc(NC(=O)c4cccc(C(F)(F)F)c4F)cnc3C)cnc21` [Example 300, N-(5-((4aS,11bR- cis)-7-ethyl-6-oxo-2,4,4a,6,7,11b-hexahydro-1H-pyrano[4,3-f]pyrido[2,3-d][1,3]oxazepin-10-yl)-6-methylpyridin-3-yl)-2-fluoro-3-(trifluoromethyl) benzamide] gave an IC50 of 200 pM. For `CCN1C(=O)OC2COCCC2c2cc(-c3cc(NC(=O)c4ccnc(C(C)(F)F)c4)ccc3C)cnc21` [Example 302, 2-(1,1-difluoroethyl)-N-(3-((4aS,11bR-cis)-7-ethyl-6-oxo-2,4,4a,6,7,11b-hexahydro-1H-pyrano[4,3-f]pyrido[2,3-d][1,3]oxazepin-10-yl)-methylphenyl) isonicotinamide], the IC50 was 100 pM. For `CCN1C(=O)[C@@H]2COCC[C@H]2c2cc(-c3cc(NC(=O)c4cncc(C(F)(F)F)c4)ccc3C)cnc21` [Example 303, N-(3-((4aS,10bR)-6-ethyl-5-oxo-2,4,4a,5,6,10b-hexahydro-1H-pyrano[3,4-c][1,8]naphthyridin-9-yl)-4-methylphenyl)-5-(trifluoromethyl) nicotinamide], the IC50 was 100 pM. `CCN1C(=O)O[C@H]2COCC[C@@H]2c2cc(-c3cc(NC(=O)c4ccnc(C(F)(F)F)c4F)ccc3C)cnc21` [Example 304, N-(3-((4aR, 11bR)-7-ethyl-6-oxo-2,4,4a,6,7,11b-hexahydro-1H-pyrano[4,3-f]pyrido[2,3-d][1,3]oxazepin-10-yl)-4-methylphenyl)-3-fluoro-2-(trifluoromethyl) isonicotinamide] was tested, and the IC50 was 500 pM. In the case of `CCN1C(=O)O[C@H]2COCC[C@@H]2c2cc(-c3cc(NC(=O)c4ccnc(C(F)(F)F)c4)ccc3C)cnc21` [Example 305, N-(3-((4aR,11bR)-7-ethyl-6-oxo-2,4,4a,6,7,11b-hexahydro-1H-pyrano[4,3-f]pyrido[2,3-d][1,3]oxazepin-10-yl)-4-methylphenyl)-2-(trifluoromethyl) isonicotinamide], the IC50 is reported as 300 pM. For `Cc1ccc(NC(=O)c2cncc(C(F)(F)F)c2)cc1-c1cnc2c(c1)[C@@H]1CCOC[C@H]1C(=O)N2CCO` [Example 306, N-(3-((4aS,10bR)-6-(2-hydroxyethyl)-5-oxo-2,4,4a,5,6,10b-hexahydro-1H-pyrano[3,4-c][1,8]naphthyridin-9-yl)-4-methylphenyl)-5-(trifluoromethyl) nicotinamide], the IC50 was 100 pM. `Cc1ccc(NC(=O)c2ccnc(C(F)(F)F)c2F)cc1-c1cnc2c(c1)[C@@H]1CCOC[C@H]1C(=O)N2CCO` [Example 307, 3-fluoro-N-(3 - ((4aS, 10bR)-6-(2-hydroxyethyl)-5-oxo-2,4,4a,5,6,10b-hexahydro-1H-pyrano[3,4-c][1,8]naphthyridin-9-yl)-4-methylphenyl)-2-(trifluoromethyl) isonicotinamide] gave an IC50 of 100 pM. Work on `CCN1C(=O)[C@H]2COCC[C@@H]2c2cc(-c3cc(NC(=O)c4cccc(C(F)(F)F)c4)cnc3C)cnc21` [Example 309, N-(5-((4aR, 10bS)-6-ethyl-5-oxo-1,4,4a,5,6,10b-hexahydro-2H-pyrano[3,4 - c][1,8]naphthyridin-9-yl)-6-methylpyridin-3-yl)-3-(trifluoromethyl) benzamide] yielded an IC50 of 300 pM. `CCN1C(=O)[C@H]2COCC[C@@H]2c2cc(-c3cc(NC(=O)c4ccnc(C(C)(C)F)c4)cnc3C)cnc21` [Example 310, N-(5-((4aR, 10bS)-6-ethyl-5-oxo-1,4,4a,5,6,10b-hexahydro-2H-pyrano[3,4-c][1,8]naphthyridin-9-yl)-6-methylpyridin-3-yl)-2-(2-fluoropropan-2-yl)isonicotinamide] was tested, and the IC50 was 100 pM. For `CCN1C(=O)[C@@H]2COCC[C@H]2c2cc(-c3cc(NC(=O)c4ccnc(C(F)(F)F)c4)ccc3C)cnc21` [Example 311, N-(3-((4aS, 10bR)-6-ethyl-5-oxo-1,4,4a,5,6,10b-hexahydro-2H-pyrano[3,4 - c][1,8]naphthyridin-9-yl)-4-methylphenyl)-2-(trifluoromethyl) isonicotinamide], the IC50 was 100 pM. Work on `CCN1C(=O)[C@@H]2COCC[C@H]2c2cc(-c3cc(NC(=O)c4cccc(C(F)(F)F)c4)cnc3C)cnc21` [Example 312, N-(5-((4aS, 10bR)-6-ethyl-5-oxo-1,4,4a,5,6,10b-hexahydro-2H-pyrano[3,4-c][1,8]naphthyridin-9-yl)-6-methylpyridin-3-yl)-3-(trifluoromethyl) benzamide] yielded an IC50 of 100 pM. In the case of `CCN1C(=O)[C@@H]2COCC[C@H]2c2cc(-c3cc(NC(=O)c4ccnc(C(C)(C)F)c4)cnc3C)cnc21` [Example 313, N-(5-((4aS, 10bR)-6-ethyl-5-oxo-1,4,4a,5,6,10b-hexahydro-2H-pyrano[3,4-c][1,8]naphthyridin-9-yl)-6-methylpyridin-3-yl)-2-(2-fluoropropan-2-yl)isonicotinamide], the IC50 is reported as 500 pM. `CCN1C(=O)CC2CCOCCN2c2cc(-c3cc(NC(=O)c4ccnc(C(F)(F)F)c4)ccc3C)cnc21` (stereo not shown) [Example 314, N-(3-(8-ethyl-7-oxo-1,2,4,5,5a,6,7,8-octahydropyrido[3′, 2′:2,3][1,4]diazepino [1,7-d][1,4]oxazepin-11-yl)-4-methylphenyl)-2-(trifluoromethyl) isonicotinamide] showed an IC50 of 600 pM. `CCN1C(=O)CC2CCOCCN2c2cc(-c3cc(NC(=O)c4cccc(C(F)(F)F)c4)cnc3C)cnc21` (stereo not shown) [Example 315, N-(5-(8-ethyl-7-oxo-1,2,4,5,5a,6,7,8-octahydropyrido[3′, 2′:2,3][1,4]diazepino [1,7-d][1,4]oxazepin-11-yl)-6-methylpyridin-3-yl)-3-(trifluoromethyl) benzamide] showed an IC50 of 1700 pM. `CCN1C(=O)CC2CCOCCN2c2cc(-c3cc(NC(=O)c4ccnc(C(F)(F)F)c4)ccc3C)cnc21` (stereo not shown) [Example 316, N-(3-(8-ethyl-7-oxo-1,2,4,5,5a,6,7,8-octahydropyrido[3′, 2′:2,3][1,4]diazepino [1,7-d][1,4]oxazepin-11-yl)-4-methylphenyl)-2-(trifluoromethyl) isonicotinamide] gave an IC50 of 800 pM. With `Cc1ccc(NC(=O)c2ccnc(C(F)(F)F)c2)cc1-c1cnc2c(c1)N1CCOCCC1CC(=O)N2CCO` (stereo not shown) [Example 318, N-(3-(8-(2-hydroxyethyl)-7-oxo-1,2,4,5,5a,6,7,8-octahydropyrido[3′, 2′:2,3][1,4]diazepino [1,7-d][1,4]oxazepin-11-yl)-4-methylphenyl)-2-(trifluoromethyl) isonicotinamide] the IC50 was 1400 pM. For `Cc1ncc(NC(=O)c2cccc(C(F)(F)F)c2)cc1-c1cnc2c(c1)N1CCOCCC1CC(=O)N2CCO` (stereo not shown) [Example 319, N-(5-(8-(2-hydroxyethyl)-7-oxo-1,2,4,5,5a,6,7,8-octahydropyrido[3′, 2′:2,3][1,4]diazepino [1,7-d][1,4]oxazepin-11-yl)-6-methylpyridin-3-yl)-3-(trifluoromethyl) benzamide], the IC50 was 2200 pM. Work on `Cc1ccc(NC(=O)c2ccnc(C(F)(F)F)c2F)cc1-c1cnc2c(c1)N1CCOC[C@H]1CC(=O)N2CCO` [Example 322, (R)-3-fluoro-N-(3-(7-(2-hydroxyethyl)-6-oxo-2,4,4a,5,6,7-hexahydro-1H-[1,4]oxazino[4,3-d]pyrido[2,3-b][1,4]diazepin-10-yl)-4-methylphenyl)-2-(trifluoromethyl) isonicotinamide] yielded an IC50 of 300 pM. With `Cc1ccc(NC(=O)c2cnnc(C(F)(F)F)c2)cc1-c1cnc2c(c1)N1CCOC[C@H]1CC(=O)N2CCO` [Example 323, (R)-N-(3-(7-(2-hydroxyethyl)-6-oxo-2,4,4a,5,6,7-hexahydro-1H-[1,4]oxazino[4,3-d]pyrido[2,3-b][1,4]diazepin-10-yl)-4-methylphenyl)-6-(trifluoromethyl) pyridazine-4-carboxamide] the IC50 was 200 pM. `Cc1ccc(NC(=O)c2cnnc(C(F)(F)F)c2)cc1-c1cnc2c(c1)N1CCOC[C@@H]1CC(=O)N2CCO` [Example 324, (S)-N-(3-(7-(2-hydroxyethyl)-6-oxo-2,4,4a,5,6,7-hexahydro-1H-[1,4]oxazino[4,3-d]pyrido[2,3-b][1,4]diazepin-10-yl)-4-methylphenyl)-6-(trifluoromethyl) pyridazine-4-carboxamide] showed an IC50 of 800 pM. `CCN1C(=O)C[C@@H]2COCCN2c2cc(-c3cc(NC(=O)c4cnnc(C(F)(F)F)c4)ccc3C)cnc21` [Example 325, (R)-N-(3-(7-ethyl-6-oxo-2,4,4a,5,6,7-hexahydro-1H-[1,4]oxazino[4,3-d]pyrido[2,3-b][1,4]diazepin-10-yl)-4-methylphenyl)-6-(trifluoromethyl) pyridazine-4-carboxamide] gave an IC50 of 100 pM. `CCN1C(=O)C[C@H]2COCCN2c2cc(-c3cc(NC(=O)c4cnnc(C(F)(F)F)c4)ccc3C)cnc21` [Example 326, (S)-N-(3-(7-ethyl-6-oxo-2,4,4a,5,6,7-hexahydro-1H-[1,4]oxazino[4,3-d]pyrido[2,3-b][1,4]diazepin-10-yl)-4-methylphenyl)-6-(trifluoromethyl) pyridazine-4-carboxamide] showed an IC50 of 500 pM. With `CCN1C(=O)C[C@@H]2COCCN2c2cc(-c3cc(NC(=O)c4ccnc(C(F)(F)F)c4F)ccc3C)cnc21` [Example 327, (R)-N-(3-(7-ethyl-6-oxo-2,4,4a,5,6,7-hexahydro-1H-[1,4]oxazino[4,3-d]pyrido[2,3-b][1,4]diazepin-10-yl)-4-methylphenyl)-3-fluoro-2-(trifluoromethyl) isonicotinamide] the IC50 was 300 pM. In the case of `CCN1C(=O)C[C@@H]2COCCN2c2cc(-c3cc(NC(=O)c4cncc(C(F)(F)F)c4)ccc3C)cnc21` [Example 328, (R)-N-(3-(7-ethyl-6-oxo-2,4,4a,5,6,7-hexahydro-1H-[1,4]oxazino[4,3-d]pyrido[2,3-b][1,4]diazepin-10-yl)-4-methylphenyl)-5-(trifluoromethyl) nicotinamide], the IC50 is reported as 100 pM. Compound `Cc1ccc(NC(=O)c2cncc(C(F)(F)F)c2)cc1-c1cnc2c(c1)N1CCOC[C@H]1CC(=O)N2CCO` [Example 329, (R)-N-(3-(7-(2-hydroxyethyl)-6-oxo-2,4,4a,5,6,7-hexahydro-1H-[1,4]oxazino[4,3-d]pyrido[2,3-b][1,4]diazepin-10-yl)-4-methylphenyl)-5-(trifluoromethyl) nicotinamide] has an IC50 of 200 pM.
